Test results reported in BindingDB's records for patent WO2025045746 (695 Avenue de la Résistance, 2025).

Biological target: T1, NAD(+) hydrolase SARM1 [28-724] (UniProt Q6SZW1)
T1 construct: 28-724
T1 sequence (Q6SZW1 whole entry): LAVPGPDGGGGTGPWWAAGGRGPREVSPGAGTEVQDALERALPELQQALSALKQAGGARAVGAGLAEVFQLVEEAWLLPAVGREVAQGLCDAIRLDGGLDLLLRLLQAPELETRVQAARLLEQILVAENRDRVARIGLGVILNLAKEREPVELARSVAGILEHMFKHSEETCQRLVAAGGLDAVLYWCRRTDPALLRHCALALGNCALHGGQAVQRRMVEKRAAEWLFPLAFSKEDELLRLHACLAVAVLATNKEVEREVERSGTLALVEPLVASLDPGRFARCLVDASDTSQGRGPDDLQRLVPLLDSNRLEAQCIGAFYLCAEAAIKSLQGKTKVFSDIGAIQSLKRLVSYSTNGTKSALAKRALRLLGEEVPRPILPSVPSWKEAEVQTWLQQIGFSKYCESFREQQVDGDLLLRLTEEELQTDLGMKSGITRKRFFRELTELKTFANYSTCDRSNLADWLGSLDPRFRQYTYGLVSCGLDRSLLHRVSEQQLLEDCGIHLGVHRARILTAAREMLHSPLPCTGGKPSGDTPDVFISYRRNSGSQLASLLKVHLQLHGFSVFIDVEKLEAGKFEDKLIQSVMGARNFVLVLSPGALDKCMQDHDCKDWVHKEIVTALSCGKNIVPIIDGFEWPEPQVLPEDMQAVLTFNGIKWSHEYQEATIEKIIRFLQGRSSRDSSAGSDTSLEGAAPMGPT
Assay: SARM1 Inhibitory Activity
Description: Assay reagents were prepared in 25mM HEPES pH 7.2, 50mM NaCl, 1mM EDTA and 0.0025% Tween20. […] The peak area of NAD and linear ADPR were measured by a RapidFire High Throughput Mass Spectrometry System (Agilent Technologies, Santa Clara, CA) using an API5000 triple quadrupole mass spectrometer (AB Sciex Framingham, MA). The ratio of linear ADPR to NAD peak area was then plotted against compound concentration to obtain an IC50 as fitted via non-linear regression.

| IC50 [µM] | SMILES |
| --- | --- |
| 0.051 | C[C@@H]1CN(C(=O)c2cc(-c3ccnnc3)n[nH]2)C[C@H]1c1ccc(Cl)cc1 [WO2025045746, Example 65] |
| 0.217 | C[C@H](O)[C@@H]1CN(C(=O)c2cc(-c3ccnnc3)n[nH]2)C[C@H]1c1ccc(Cl)cc1 [WO2025045746, Example 67] |
| 0.749 | O=C(c1cc(-c2ccnnc2)n[nH]1)N1CC[C@@H](c2cc(Cl)cs2)C1 [WO2025045746, Example 69] |
| 0.03 | N#C[C@H]1CN(C(=O)c2cc(-c3ccnnc3)n[nH]2)C[C@@H]1c1ccc(Cl)cc1 [WO2025045746, Example 73] |
| 0.506 | O=C(c1cc(-c2ccnnc2)n[nH]1)N1C[C@@H](F)[C@H](c2ccc(Cl)cc2)C1 [WO2025045746, Example 75] |
| 4.5 | O=C(c1cc(-c2ccnnc2)n[nH]1)N1C[C@H](c2ccc(Cl)cc2)[C@@H](F)C1 [WO2025045746, Example 76] |

Further lines, the compound ahead of its results:

| SMILES | IC50 [µM] |
| --- | --- |
| O=C(c1[nH]nc(-c2ccnnc2)c1C1CC1)N1CCC(c2ccc(Cl)cc2)C1 (stereo unspecified) [WO2025045746, Example 66] | 3.02 |
| C[C@@H](O)[C@@H]1CN(C(=O)c2cc(-c3ccnnc3)n[nH]2)C[C@H]1c1ccc(Cl)cc1 [WO2025045746, Example 68] | 0.196 |
| O=C(c1cc(-c2ccnnc2)n[nH]1)N1CC[C@H](c2cc(Cl)cs2)C1 [WO2025045746, Example 70] | 0.214 |
| N#C[C@@H]1CN(C(=O)c2cc(-c3ccnnc3)n[nH]2)C[C@H]1c1ccc(Cl)cc1 [WO2025045746, Example 72] | 0.563 |
| COc1cnccc1-c1cc(C(=O)N2CCC(c3ccc(Cl)cc3)C2)[nH]n1 (stereo unspecified) [WO2025045746, Example 79] | 3.05 |
